In patent US20180136197A1, “CELL-FREE METHODS OF DETECTING BIOACTIVE LIGANDS” (Brigham Young University, priority 2016, published 2018):

B1: RNase inhibitor: murine RNAse inhibitor purchased from New England Biolabs, added to CFPS reactions (protein, UniProt Q91VI7 1-456, looked up)
Ribonuclease inhibitor: MSLDIQCEQLSDARWTELLPLIQQYEVVRLDDCGLTEVRCKDISSAVQANPALTELSLRTNELGDGGVGLVLQGLQNPTCKIQKLSLQNCGLTEAGCGILPGMLRSLSTLRELHLNDNPMGDAGLKLLCEGLQDPQCRLEKLQLEYCNLTATSCEPLASVLRVKADFKELVLSNNDLHEPGVRILCQGLKDSACQLESLKLENCGITAANCKDLCDVVASKASLQELDLSSNKLGNAGIAALCPGLLLPSCKLRTLWLWECDITAEGCKDLCRVLRAKQSLKELSLASNELKDEGARLLCESLLEPGCQLESLWIKTCSLTAASCPYFCSVLTKSRSLLELQMSSNPLGDEGVQELCKALSQPDTVLRELWLGDCDVTNSGCSSLANVLLANRSLRELDLSNNCMGGPGVLQLLESLKQPSCTLQQLVLYDIYWTNEVEEQLRALEEERPSLRIIS

Test system: E. coli-based CFPS of GFP
Assay: Cell-free protein synthesis (CFPS) of model protein GFP in presence of additives
Assay type: biochemical
Method: CFPS reactions took place in a 96-well plate at 37° C. for 2 hours. PANOxSP was used as an energy source (25% reaction volume of the cell extract, 1.2 nM plasmid, 12 to 15 mM magnesium glutamate, 1 mM 1,4-diaminobutane, 1.5 mM Spermidine, 33.3 mM phosphoenolpyruvate, 10 mM ammonium glutamate, 175 mM potassium glutamate, 2.7 mM potassium oxalate, 0.33 mM nicotinamide adenine dinucleotide, 0.27 mM coenzyme A, 1.2 mM ATP, 0.86 mM CTP, 0.86 mM GTP, 0.86 mM UTP, 0.17 mM folinic acid, 2 mM of all canonical amino acids with the exception of glutamic acid^81. Expressed protein was quantified by addition of 5 μM radiolabeled (U-14C) leucine (PerkinElmer, Waltham, Mass.) to the CFPS reaction. Varying concentrations (0 to 200 μM) of ligands were added to the CFPS reaction. In case of human sample testing, 20% and 10% of whole blood and urine (v/v), respectively were added to the CFPS in addition to the EDC ligands.
Initially, we hypothesized that urea is the main component to hinder protein synthesis in urine samples. The urea concentration in human samples is in a range of 0.1 to 0.8 M^88-89 with the average being 0.22 M^90. To understand the effect of urea on CFPS, we synthesized the model protein GFP in the presence of urea at concentrations between 0.001 to 1 M (FIG. 23). […] Error bars represent one standard deviation for n=3. […] Even reactions with 0.5 M urea retained 40% protein synthesis capability.
We next hypothesized that RNase activity hinders protein synthesis in both urine and blood samples^91,92,93. To test this hypothesis, we performed CFPS of GFP in the presence of urine and blood, and added murine RNase inhibitor as shown in FIGS. 24A and 24B. FIGS. 24A and 24B show the effect of RNase inhibitor on CFPS of GFP in the presence of urine (top) and blood (bottom). The lighter bars in both graphs represent the improvements in protein production in the presence of urine or blood with the addition of RNase inhibitor. The error bars represent one standard deviation for n=3. […] For instance, for 20% by volume urine sample, the GFP production yield increased from less than 10% to more than 30%. The improvement was more significant for blood samples, as 10% by volume blood eliminated protein synthesis, but even 45% by volume blood in CFPS containing RNase inhibitor retained 50% protein synthesis yield. […] Adding RNase inhibitors to CFPS reactions facilitates synthesis of sufficient biosensor protein to detect ligands in up to 25% and 45% by volume urine and blood, respectively. These higher volume percentages help to detect lower concentrations of ligands in the samples.

Molecule	effect on CFPS performance (0.1 M urea)	retained protein synthesis capability (0.5 M urea)	GFP production yield (20% by volume urine, with RNase inhibitor (less than 10% without))	retained protein synthesis yield (45% by volume blood, with RNase inhibitor)
NC(N)=O [urea]	doesn't have a significant effect	40%		
B1			more than 30%	50%
